Laboratory results from patent US20200171005A9, “Heterobifunctional Pan-Selectin Antagonists Having a Triazole Linker” (GlycoMimetics, Inc., priority 2015, published 2020).

Experiments:
[1] = biological target: T1, P-selectin (P-selectin/IgG) (Homo sapiens, UniProt P16109); experiment: Cell-free P-selectin ligand competitive binding assay (sLe^a-PAA); details: P-selectin/IgG coated plate, sLe^a-PAA streptavidin-POD complex, 25° C., 2 hours; read-out: IC50, Binding Affinity to P-Selectin Determined by Competitive Binding Assay
T1 sequence (P16109 42-771): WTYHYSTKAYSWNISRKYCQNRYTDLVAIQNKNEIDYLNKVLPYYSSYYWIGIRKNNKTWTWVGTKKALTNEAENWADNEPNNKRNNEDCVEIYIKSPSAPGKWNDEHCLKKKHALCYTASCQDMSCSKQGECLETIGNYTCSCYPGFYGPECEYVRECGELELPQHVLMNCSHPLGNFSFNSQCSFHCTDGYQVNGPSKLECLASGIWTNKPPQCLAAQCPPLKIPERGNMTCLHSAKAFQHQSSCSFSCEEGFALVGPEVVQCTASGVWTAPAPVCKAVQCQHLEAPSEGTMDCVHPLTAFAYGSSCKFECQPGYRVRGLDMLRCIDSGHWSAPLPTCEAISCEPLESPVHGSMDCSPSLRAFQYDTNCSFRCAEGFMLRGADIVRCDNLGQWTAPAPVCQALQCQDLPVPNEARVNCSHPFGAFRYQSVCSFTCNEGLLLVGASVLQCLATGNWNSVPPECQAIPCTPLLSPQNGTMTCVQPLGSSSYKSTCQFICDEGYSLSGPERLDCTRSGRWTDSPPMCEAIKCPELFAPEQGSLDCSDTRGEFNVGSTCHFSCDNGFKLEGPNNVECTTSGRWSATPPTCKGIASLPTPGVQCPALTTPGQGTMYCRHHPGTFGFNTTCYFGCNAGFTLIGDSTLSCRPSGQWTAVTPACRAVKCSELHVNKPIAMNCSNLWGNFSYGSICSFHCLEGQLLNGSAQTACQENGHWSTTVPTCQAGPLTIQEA
Description: The cell-free P-selectin ligand binding assay was adapted from Weitz-Schmidt et al (G. Weitz-Schmidt, D. Stokmaier, G. Scheel, N. E. Nifant'ev, A. B. Tuzikov, N. V. Bovin, Anal Biochem 1996, 238, 184-190). A MaxiSorp 96-well flat bottom microtiter plate purchased from Nalge Nunc International (Penfield, N.Y., USA) was coated with P-selectin/IgG by incubation with 100 μL/well of the purified protein at a concentration of 3 μg/ml in 10 mM HEPES-NaOH pH 7.4, 150 mM NaCl, 1 mM CaCl2 (HAB-Ca^+). After an overnight incubation at 4° C., the plate was washed three times with HAB-Ca^+ followed by a 2 hour incubation with 200 μL/well of a solution of 3% BSA in HAB-Ca^+ at room temperature to block nonspecific binding. During this incubation, inhibitory test compounds, diluted in HAB-Ca^+, were titrated by a twofold serial and mixed with an equal volume of 0.2 μg/ml of a preformed complex of a biotinylated sialyl Lewis' polyacrylamide polymer (sLe^a-PAA) purchased form GlycoTech Inc. (Gaithsburg, Md., USA) and horseradish peroxidase-labeled streptavidin (streptavidin-POD) purchased from Roche (Rotkreuz, Switzerland). After blocking, the microtiter plate was washed three times with HAB-Ca^+ and 100 μL/well of the inhibitor dilution series premixed with sLe^a-PAA streptavidin-POD complex was transferred to the different wells of the plate. The binding reaction was allowed to proceed at 25° C. After 2 hours, the plate was washed twice with HAB-Ca^+, and 100 μL/well of ABTS (2,2′-azino-bis[3-ethylbenzthiazoline-6-sulfonic acid]) substrate reagent purchased from Invitrogen (Paisley, UK) was added to each well. Adding 100 μL/well of 2% oxalic acid stopped the colorimetric reaction was after 5 minutes. The optical density was determined at […] (SpectraMax). The concentration of antagonist required to inhibit binding by 50% was determined and is reported as the IC50 value.

[2] = biological target: T2, E-selectin (E-selectinLEC2 construct) (Homo sapiens, UniProt P16581); experiment: Microscale Thermophoresis (MST) affinity assay for E-selectin; details: labeled E-selectinLEC2, HEPES buffer pH 7.4, 1 mM CaCl2, 25° C.; read-out: Binding Affinity (KD) to E-Selectin Determined by MST
T2 construct: a construct consisting of the lectin domain, the EGF like domain, and the first two short consensus repeats (E-selectinLEC2)
T2 sequence (P16581 22-301 limits assumed): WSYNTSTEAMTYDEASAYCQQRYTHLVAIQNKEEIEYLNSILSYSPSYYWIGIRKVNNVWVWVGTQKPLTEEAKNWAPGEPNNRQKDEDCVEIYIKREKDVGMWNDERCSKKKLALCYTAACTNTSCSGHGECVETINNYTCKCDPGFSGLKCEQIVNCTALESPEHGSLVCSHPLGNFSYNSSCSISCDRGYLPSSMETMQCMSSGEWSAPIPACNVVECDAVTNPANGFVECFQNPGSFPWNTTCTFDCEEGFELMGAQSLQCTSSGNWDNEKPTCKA
Description: For E-selectin, a construct consisting of the lectin domain, the EGF like domain, and the first two short consensus repeats (E-selectinLEC2) was labeled using the amine reactive protein labeling kit BLUE-NHS from NanoTemper Technologies GmbH (Munich, Germany).
The Microscale Thermophoresis (MST) experiments were carried out in a HEPES buffer adjusted to pH 7.4 containing 150 mM NaCl, 1 mM CaCl2 and 0.05% Tween 20 at a temperature of 25° C. with 50% LED power, 50% laser power, laser on time of 30 seconds, and laser off time of 5 seconds with standard treated capillaries. A fixed concentration of the labeled E-selectinLEC2 protein was incubated for 20 minutes with a 15-datapoint […] 1:1 dilution of ligand starting about 30 times above the expected KD. The observed data points were fitted using the single-site binding function of Alan Cooper, Tutorial Chemistry Texts, Vol 16: Biophysical Chemistry; Royal Society of Chemistry: Cambridge, 2004.

IC50 [1] [µM]	Kd [2] [nM]	Structure (SMILES)
94	1500	CCC1CC(C(=O)NCCCc2cn(CCC(=O)Nc3cc(S(=O)(=O)O)cc4cc(S(=O)(=O)O)cc(S(=O)(=O)O)c34)nn2)CC(OC2OC(CO)C(O)C(OC(CC3CCCCC3)C(=O)O)C2OC(=O)c2ccccc2)C1OC1OC(C)C(O)C(O)C1O (centres unmarked) [Compound 15a]
82	970	CCC1CC(C(=O)NCCCc2cn(CCCC(=O)Nc3cc(S(=O)(=O)O)cc4cc(S(=O)(=O)O)cc(S(=O)(=O)O)c34)nn2)CC(OC2OC(CO)C(O)C(OC(CC3CCCCC3)C(=O)O)C2OC(=O)c2ccccc2)C1OC1OC(C)C(O)C(O)C1O (centres unmarked) [Compound 15b]
210	1200	CCC1CC(C(=O)NCCCc2cn(CCCCC(=O)Nc3cc(S(=O)(=O)O)cc4cc(S(=O)(=O)O)cc(S(=O)(=O)O)c34)nn2)CC(OC2OC(CO)C(O)C(OC(CC3CCCCC3)C(=O)O)C2OC(=O)c2ccccc2)C1OC1OC(C)C(O)C(O)C1O (centres unmarked) [Compound 15c]
185	3000	CC1CC(C(=O)NCCCc2cn(CCC(=O)Nc3cc(S(=O)(=O)O)cc4cc(S(=O)(=O)O)cc(S(=O)(=O)O)c34)nn2)CC(OC2OC(CO)C(O)C(OC(CC3CCCCC3)C(=O)O)C2OC(=O)c2ccccc2)C1OC1OC(C)C(O)C(O)C1O (centres unmarked) [Compound 17]
